Source: publication PMC4006925, “Squalene Synthase As a Target for Chagas Disease Therapeutics” (PLoS Pathogens, 2014)
Where two headings read alike, the source gives them in different places.

How the values were obtained:
TcSQS = TcSQS (Trypanosoma cruzi, UniProt Q4CWB4); assay: biochemical; assay type: biochemical
Procedure: (§1) Initial SQS enzyme inhibition assays were carried out, in duplicate, in 96-well plates, with a total of 200 µL of reaction mixture in each well. Reactions were monitored by using a continuous spectrophotometric assay for phosphate releasing enzymes. […] The compounds investigated were pre-incubated with 2 µg of SQS for 30 min at 20°C. The IC50 values were obtained by fitting the inhibition data to a normal dose–response curve, using GraphPad PRISM, version 4.0, software for Windows (GraphPad Software Inc., San Diego, CA, www.graphpad.com). We then verified the results by using a radioactivity assay using ^3H-labelled FPP as substrate. […] The enzymes were incubated with inhibitor for 10 minutes before addition of the substrates. The reaction was allowed to continue at 37°C for 15 minutes and then terminated with 50 µL of 0.1 M NaOH/methanol. The product was extracted with 500 µL of hexanes and 300 µL of the organic layer was measured by scintillation counting.

TcFPPS = biological target: T1, TcFPPS (Trypanosoma cruzi, UniProt Q95WL3); assay: T. cruzi FPPS inhibition; assay type: biochemical
T1 sequence (Q95WL3 1-362): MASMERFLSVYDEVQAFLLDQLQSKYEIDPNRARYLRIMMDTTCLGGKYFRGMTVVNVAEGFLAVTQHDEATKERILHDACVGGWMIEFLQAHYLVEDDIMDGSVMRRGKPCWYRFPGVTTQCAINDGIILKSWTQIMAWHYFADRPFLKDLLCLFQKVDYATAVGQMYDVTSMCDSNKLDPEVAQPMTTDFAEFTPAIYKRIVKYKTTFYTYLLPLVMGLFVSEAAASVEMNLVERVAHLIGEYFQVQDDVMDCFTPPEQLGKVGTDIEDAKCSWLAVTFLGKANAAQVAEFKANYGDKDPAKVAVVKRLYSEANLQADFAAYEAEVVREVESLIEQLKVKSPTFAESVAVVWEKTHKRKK
Procedure: For FPPS inhibition we used the methods described previously. The condensation of geranyl diphosphate (100 µM) and isopentenyl diphosphate (100 µM) was monitored at room temperature by using a continuous spectrophotometric assay for phosphate releasing enzymes. The reaction buffer contained 50 mM Tris-HCl, pH 7.4, 1 mM MgCl2, and 0.01% Triton X100. The compounds investigated were pre-incubated with enzyme for 30 min at room temperature. The IC50 values were obtained from fitting dose-response curve using Prism 4.0 (GraphPad Software, Inc., La Jolla, CA, www.graphpad.com).

T. cruzi amastigotes = assay: T. cruzi amastigote cell growth inhibition in Vero cells; assay type: cell-based, Trypanosoma cruzi; conditions: means ± SD from 2 or 3 independent experiments, day 3 post-infection
Procedure: Gamma-irradiated (2,000 Rads) Vero cells (3.4×10^4 cells/well) were seeded in 96 well plates (black, clear bottom plates from Greiner Bio-One) in 100 µL RPMI media (Sigma) with 10% FBS. Plates were incubated overnight at 35°C and 7% CO2. […] After infection, cells were washed once with Hanks solution (150 µL/well) to eliminate any extracellular parasites, and compounds were added in serial dilutions in RPMI media in 150 µL volumes. Each dilution was tested in quadruplicate. Each plate also contained controls with host cells and no parasites (for a background check), and controls with parasites and no drugs (positive control). […] For each set of experiments, benznidazole was used as a positive control. After drug addition, plates were incubated at 35°C and 7% CO2. At day 3 post-infection, plates were assayed for fluorescence and IC50 values were determined by non-linear regression analysis using SigmaPlot.

HsSQS [1] = biological target: T2, HsSQS (Homo sapiens, UniProt P37268); assay: Human squalene synthase inhibition; assay type: biochemical
T2 construct: His-tag; made in house
T2 sequence (P37268 1-417): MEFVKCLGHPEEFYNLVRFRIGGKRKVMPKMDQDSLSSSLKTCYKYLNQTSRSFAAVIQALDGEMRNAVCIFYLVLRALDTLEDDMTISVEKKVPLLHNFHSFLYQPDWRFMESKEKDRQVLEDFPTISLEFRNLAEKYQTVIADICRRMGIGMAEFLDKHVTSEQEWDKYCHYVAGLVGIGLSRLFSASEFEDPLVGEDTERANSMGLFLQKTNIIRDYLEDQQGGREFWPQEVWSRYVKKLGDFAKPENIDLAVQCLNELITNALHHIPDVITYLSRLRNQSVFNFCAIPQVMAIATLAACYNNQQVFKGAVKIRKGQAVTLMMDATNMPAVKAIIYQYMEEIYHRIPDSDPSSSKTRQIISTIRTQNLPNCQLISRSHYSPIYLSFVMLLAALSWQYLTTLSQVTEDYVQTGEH
Procedure: as §1

Vero cells = assay: Vero (host) cell proliferation, alamarBlue; assay type: cell-based; conditions: read-out: IC50 Vero cells (host cell growth)
Procedure: Vero cells (1.7×10^4 cells/well) were seeded in 96 well plates (black, clear bottom from Greiner Bio-One Cat#655090) in 100 µL RPMI media (Sigma Cat# R-4130) with 10% FBS. Plates were tested as described by Recher et al.

LmSQS = test system: LmSQS; parameters: method as in PMID 18765694; conditions: cited from earlier work
HsSQS [2] = biological target: T2, HsSQS; parameters: method as in PMID 1464749; conditions: cited from earlier work

Sequence of TcSQS (Q4CWB4 entry or part of it): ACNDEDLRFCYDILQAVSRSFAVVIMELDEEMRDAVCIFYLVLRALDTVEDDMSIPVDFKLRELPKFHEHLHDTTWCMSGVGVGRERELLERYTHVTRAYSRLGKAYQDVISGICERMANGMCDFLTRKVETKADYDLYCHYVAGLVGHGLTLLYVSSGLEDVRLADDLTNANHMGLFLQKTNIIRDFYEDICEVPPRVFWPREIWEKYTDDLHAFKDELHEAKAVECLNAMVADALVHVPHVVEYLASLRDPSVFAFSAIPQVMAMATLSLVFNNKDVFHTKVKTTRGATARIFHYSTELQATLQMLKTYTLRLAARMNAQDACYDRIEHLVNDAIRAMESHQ

SMILES | IC50 (TcSQS) [µM] | IC50 (TcFPPS) [µM] | IC50 (T. cruzi amastigotes) [µM] | IC50 (HsSQS [1]) [µM] | further results
CCCCCCC[n+]1ccn(CC(O)(P(=O)([O-])O)P(=O)(O)O)c1 (stereo not shown) [BPH-1323] | 0.37 | 0.09 | > 10 | 0.68 | –
CCCCC[n+]1ccn(CC(O)(P(=O)([O-])O)P(=O)(O)O)c1 (stereo not shown) [BPH-1324] | > 10 | 0.18 | > 10 | > 10 | –
CCCCCCCCCCCCCCCn1cc[n+](CC(O)(P(=O)([O-])O)P(=O)(O)O)c1 (stereo not shown) [BPH-1325] | 0.1 | > 5 | – | 0.27 | IC50 (T. cruzi amastigotes; Trypanosoma cruzi, Vero, 72 h): 3 ± 1 µM; IC50 (Vero cells; Chlorocebus sabaeus, Vero): 0.065 ± 0.018 mM
CCCCCCC[n+]1ccn(CC(P(=O)([O-])O)P(=O)(O)O)c1 (stereo not shown) [BPH-1326] | 0.21 | 0.12 | > 10 | 0.72 | –
CCCCCCCCC[n+]1ccn(CC(P(=O)([O-])O)P(=O)(O)O)c1 (stereo not shown) [BPH-1327] | 0.016 | 0.085 | 10 ± 2 | 0.1 | IC50 (Vero cells; in mM): ~1 mM
CCCCCCCCCCC[n+]1ccn(CC(P(=O)([O-])O)P(=O)(O)O)c1 (stereo not shown) [BPH-1328] | 0.01 | 0.39 | 4 ± 1.3 | 0.11 | IC50 (Vero cells; in mM): ~1 mM
CCCCCCCCCCCCC[n+]1ccn(CC(P(=O)([O-])O)P(=O)(O)O)c1 (stereo not shown) [BPH-1329] | 0.058 | 0.91 | 1.1 ± 0.1 | 0.22 | IC50 (Vero cells; in mM): ~1 mM
CC[n+]1ccn(CC(O)(P(=O)([O-])O)P(=O)(O)O)c1 (stereo not shown) [BPH-1335] | > 10 | 0.11 | > 10 | > 10 | –
CCC[n+]1ccn(CC(O)(P(=O)([O-])O)P(=O)(O)O)c1 (stereo not shown) [BPH-1336] | > 10 | 0.33 | > 10 | > 10 | –
CCC[n+]1ccn(CC(P(=O)([O-])O)P(=O)(O)O)c1 (stereo not shown) [BPH-1337] | > 10 | 0.39 | > 10 | > 10 | –
CCCCCCCCCCCCCC[n+]1ccn(CC(O)(P(=O)([O-])O)P(=O)(O)O)c1 (stereo not shown) [BPH-1338] | 0.12 | > 5 | 1.2 ± 0.1 | 0.24 | IC50 (Vero cells): 0.051 ± 0.01 mM
CCCCC[n+]1ccn(CC(P(=O)([O-])O)P(=O)(O)O)c1 (stereo not shown) [BPH-1339] | > 10 | 0.35 | > 10 | > 10 | –
CCCCCCCCCCCCCCCn1cc[n+](CC(P(=O)([O-])O)P(=O)(O)O)c1 (stereo not shown) [BPH-1344] | 0.14 | > 5 | – | 0.26 | IC50 (T. cruzi amastigotes; Trypanosoma cruzi, Vero, 72 h): 1 ± 0.1 µM; IC50 (Vero cells; Chlorocebus sabaeus, Vero): ~1 mM
O=C(Cn1ccnc1[N+](=O)[O-])NCc1ccccc1 [Benznidazole, reference compound] | – | – | – | – | IC50 (T. cruzi amastigotes; Trypanosoma cruzi, Vero, 72 h): 1.9 µM; IC50 (Vero cells; Chlorocebus sabaeus, Vero, in mM): ~1 mM
CO[C@H]1CN(c2ccc(C#C[C@@]3(O)CN4CCC3CC4)c(Cc3ccccc3)n2)C[C@H]1O [E5700] | – | – | – | – | inhibition of LmSQS (LmSQS): nanomolar/sub-nanomolar range
COCCCOc1ccc(C#C[C@@]2(O)CN3CCC2CC3)c(Cc2ccccc2)n1 [ER119884] | – | – | – | – | inhibition of LmSQS (LmSQS): nanomolar/sub-nanomolar range
CCCCCN(C)CCC(O)(P(=O)(O)O)P(=O)(O)O [ibandronate] | – | – | – | – | K i values, human SQS (HsSQS [2]): low nM
O=P(O)(O)C(NC1CCCCCC1)P(=O)(O)O [incadronate] | – | – | – | – | K i values, human SQS (HsSQS [2]): low nM
